Test results from article PMC10009787 (ACS Medicinal Chemistry Letters, 2023).
Like-named read-outs stand apart in the source and are kept apart here.

Key:
ERBB2 (HER2) = ERBB2 (HER2) (Homo sapiens, UniProt P04626); assay: SelectScreen kinase profiling; assay type: biochemical; conditions: average of duplicate
KIT = KIT (Homo sapiens, UniProt P10721); assay: SelectScreen kinase profiling; assay type: biochemical; conditions: average of duplicate
PDGFRB (PDGFR beta) = PDGFRB (PDGFR beta) (Homo sapiens, UniProt P09619); assay: SelectScreen kinase profiling; assay type: biochemical; conditions: average of duplicate
PTK6 (Brk) = PTK6 (Brk) (Homo sapiens, UniProt Q13882); assay: SelectScreen kinase profiling; assay type: biochemical; conditions: average of duplicate
TXK = TXK (Homo sapiens, UniProt P42681); assay: SelectScreen kinase profiling; assay type: biochemical; conditions: average of duplicate
Sequence of TXK (P42681 whole entry): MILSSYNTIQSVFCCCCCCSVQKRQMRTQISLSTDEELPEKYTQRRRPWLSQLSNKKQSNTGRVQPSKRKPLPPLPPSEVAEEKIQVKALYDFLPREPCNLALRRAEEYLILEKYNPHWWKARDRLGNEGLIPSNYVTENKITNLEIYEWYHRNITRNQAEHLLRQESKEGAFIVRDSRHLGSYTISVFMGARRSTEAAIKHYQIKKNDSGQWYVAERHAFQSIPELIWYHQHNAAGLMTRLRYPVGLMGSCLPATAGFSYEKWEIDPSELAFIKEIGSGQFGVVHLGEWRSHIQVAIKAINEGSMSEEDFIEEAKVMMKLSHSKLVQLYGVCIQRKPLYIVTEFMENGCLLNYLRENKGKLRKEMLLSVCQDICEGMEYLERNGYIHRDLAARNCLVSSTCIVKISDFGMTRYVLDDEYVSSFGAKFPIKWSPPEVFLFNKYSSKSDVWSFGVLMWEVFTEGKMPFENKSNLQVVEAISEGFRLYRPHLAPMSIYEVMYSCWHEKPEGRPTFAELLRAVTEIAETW

[1] = molecular target: MAP2K1 (MEK1) S218D S222D (Homo sapiens, UniProt Q02750, S218D/S222D); assay: SelectScreen kinase profiling; assay type: biochemical; conditions: average of duplicate
Sequence of MAP2K1 (MEK1) S218D S222D (Q02750 whole entry S218D/S222D): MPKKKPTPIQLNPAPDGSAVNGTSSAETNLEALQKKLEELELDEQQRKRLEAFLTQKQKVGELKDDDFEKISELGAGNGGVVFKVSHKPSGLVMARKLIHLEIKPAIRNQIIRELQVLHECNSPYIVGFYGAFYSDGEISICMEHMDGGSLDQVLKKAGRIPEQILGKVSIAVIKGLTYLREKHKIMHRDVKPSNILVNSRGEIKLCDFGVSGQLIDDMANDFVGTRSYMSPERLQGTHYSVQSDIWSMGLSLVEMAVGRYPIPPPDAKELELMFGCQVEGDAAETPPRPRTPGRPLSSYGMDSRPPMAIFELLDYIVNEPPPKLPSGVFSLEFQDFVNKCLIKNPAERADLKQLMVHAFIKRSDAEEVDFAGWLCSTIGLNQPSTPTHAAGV

MAP2K5 (MEK5) = MAP2K5 (MEK5) (Homo sapiens, UniProt Q13163); assay: SelectScreen kinase profiling; assay type: biochemical; conditions: average of duplicate
RIPK2 = RIPK2 (Homo sapiens, UniProt O43353); assay: SelectScreen kinase profiling; assay type: biochemical; conditions: average of duplicate
TEC = TEC (Homo sapiens, UniProt P42680); assay: SelectScreen kinase profiling; assay type: biochemical; conditions: average of duplicate
Sequence of TEC (P42680 whole entry): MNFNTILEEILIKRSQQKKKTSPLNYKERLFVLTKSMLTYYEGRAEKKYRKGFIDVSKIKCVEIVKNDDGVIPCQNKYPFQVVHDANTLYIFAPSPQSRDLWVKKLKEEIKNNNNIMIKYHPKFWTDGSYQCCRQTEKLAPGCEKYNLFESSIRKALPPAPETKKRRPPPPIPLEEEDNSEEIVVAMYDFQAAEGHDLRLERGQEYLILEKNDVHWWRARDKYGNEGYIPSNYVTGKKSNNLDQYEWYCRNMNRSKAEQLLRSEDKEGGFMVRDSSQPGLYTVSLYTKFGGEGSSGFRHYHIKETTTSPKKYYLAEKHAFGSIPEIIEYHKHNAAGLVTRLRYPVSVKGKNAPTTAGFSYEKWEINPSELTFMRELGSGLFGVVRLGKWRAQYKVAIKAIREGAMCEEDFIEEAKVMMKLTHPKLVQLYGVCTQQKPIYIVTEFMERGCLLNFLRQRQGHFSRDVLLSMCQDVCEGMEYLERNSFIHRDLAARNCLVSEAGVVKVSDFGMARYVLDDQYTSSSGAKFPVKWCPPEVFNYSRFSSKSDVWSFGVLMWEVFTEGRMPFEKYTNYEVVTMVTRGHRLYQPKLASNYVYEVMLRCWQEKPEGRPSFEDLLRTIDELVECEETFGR

TTK = TTK (Homo sapiens, UniProt P33981); assay: SelectScreen kinase profiling; assay type: biochemical; conditions: average of duplicate
Sequence of TTK (P33981 whole entry, the tested form may be a part): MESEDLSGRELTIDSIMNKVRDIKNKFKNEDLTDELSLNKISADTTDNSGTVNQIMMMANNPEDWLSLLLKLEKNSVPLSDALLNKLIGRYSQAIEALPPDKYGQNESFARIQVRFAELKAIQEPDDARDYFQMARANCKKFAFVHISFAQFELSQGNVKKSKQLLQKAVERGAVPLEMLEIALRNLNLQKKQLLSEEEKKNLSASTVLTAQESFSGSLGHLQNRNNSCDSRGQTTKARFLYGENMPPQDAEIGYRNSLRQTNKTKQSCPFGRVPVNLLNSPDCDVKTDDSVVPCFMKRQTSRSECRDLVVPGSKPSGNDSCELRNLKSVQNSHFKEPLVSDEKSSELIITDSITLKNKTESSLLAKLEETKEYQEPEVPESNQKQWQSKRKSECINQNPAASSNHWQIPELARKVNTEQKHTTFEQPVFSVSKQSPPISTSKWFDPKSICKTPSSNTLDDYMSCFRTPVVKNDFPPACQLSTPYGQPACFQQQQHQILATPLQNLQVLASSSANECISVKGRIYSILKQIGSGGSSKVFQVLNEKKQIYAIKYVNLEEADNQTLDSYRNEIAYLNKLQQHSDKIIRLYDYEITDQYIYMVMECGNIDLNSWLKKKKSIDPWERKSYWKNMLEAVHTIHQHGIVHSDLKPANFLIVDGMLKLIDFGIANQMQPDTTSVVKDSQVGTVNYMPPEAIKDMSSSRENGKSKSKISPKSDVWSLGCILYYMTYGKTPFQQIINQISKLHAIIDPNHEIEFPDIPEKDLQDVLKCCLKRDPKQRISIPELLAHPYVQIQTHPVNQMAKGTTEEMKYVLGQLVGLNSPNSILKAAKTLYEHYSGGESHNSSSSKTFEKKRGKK

BTK-NanoLuc fusion = molecular target: T1, BTK-NanoLuc fusion (Homo sapiens, UniProt Q06187); assay: NanoBRET cellular engagement of BTK; assay type: cell-based; conditions: HEK293 cells
T1 construct: host or cells: HEK293
T1 sequence (Q06187 whole entry, the tested form may be a part): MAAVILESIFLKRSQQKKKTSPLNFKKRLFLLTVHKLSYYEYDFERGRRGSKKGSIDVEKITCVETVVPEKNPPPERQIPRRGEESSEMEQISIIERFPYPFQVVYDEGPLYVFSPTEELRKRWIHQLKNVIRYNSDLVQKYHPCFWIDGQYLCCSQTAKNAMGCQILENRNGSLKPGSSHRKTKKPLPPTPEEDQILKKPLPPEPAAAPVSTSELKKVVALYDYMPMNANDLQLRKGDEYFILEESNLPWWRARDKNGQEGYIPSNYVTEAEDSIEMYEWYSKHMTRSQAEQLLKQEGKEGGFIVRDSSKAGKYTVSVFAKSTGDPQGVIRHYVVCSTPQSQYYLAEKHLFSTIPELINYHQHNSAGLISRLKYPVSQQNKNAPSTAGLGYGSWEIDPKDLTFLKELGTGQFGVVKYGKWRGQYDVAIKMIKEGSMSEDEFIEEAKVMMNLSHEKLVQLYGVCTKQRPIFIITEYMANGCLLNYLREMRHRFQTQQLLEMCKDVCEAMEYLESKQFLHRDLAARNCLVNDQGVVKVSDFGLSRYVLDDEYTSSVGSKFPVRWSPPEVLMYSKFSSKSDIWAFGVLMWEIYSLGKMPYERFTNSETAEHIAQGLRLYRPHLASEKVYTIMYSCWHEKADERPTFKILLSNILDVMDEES
Protocol: NanoBRET Experiments: HEK293 cells were transfected with the BTK-NanoLuc fusion vector (Promega, #N2501) according to the manufacturer’s protocol. After […]
Promega, #N2501) for 30 minutes. After an additional 30, 60, or 90 minutes the NanoBRET complete substrate plus inhibitor solution (3X solution in Opti-MEM I reduced serum medium, no phenol red, Promega, #N2501) was added to each well.
After 5-10 minutes, the BRET ratio was measured using BMG Labtech CLARIOstar with preloaded filters for donor 450nm/80nm BP (band pass) and acceptor 610nm LP (long

EGFR (ErbB1) = EGFR (ErbB1) (Homo sapiens, UniProt P00533); assay: SelectScreen kinase profiling / Z′-Lyte kinase assay
Sequence of EGFR (ErbB1) (P00533 668-1210 limits assumed): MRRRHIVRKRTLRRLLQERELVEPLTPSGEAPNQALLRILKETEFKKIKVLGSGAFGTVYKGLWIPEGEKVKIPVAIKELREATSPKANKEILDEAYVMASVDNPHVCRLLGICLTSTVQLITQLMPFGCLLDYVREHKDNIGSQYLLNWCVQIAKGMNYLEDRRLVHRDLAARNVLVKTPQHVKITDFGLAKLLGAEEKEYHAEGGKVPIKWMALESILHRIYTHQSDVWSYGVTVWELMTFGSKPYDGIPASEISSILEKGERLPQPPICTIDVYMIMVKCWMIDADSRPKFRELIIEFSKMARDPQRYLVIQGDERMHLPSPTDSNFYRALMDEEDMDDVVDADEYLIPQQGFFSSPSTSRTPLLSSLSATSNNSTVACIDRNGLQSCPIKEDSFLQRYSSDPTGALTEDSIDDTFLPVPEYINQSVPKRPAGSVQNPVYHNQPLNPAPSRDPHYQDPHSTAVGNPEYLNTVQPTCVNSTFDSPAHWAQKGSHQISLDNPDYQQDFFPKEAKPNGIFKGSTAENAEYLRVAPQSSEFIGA

JAK3 = JAK3 (Homo sapiens, UniProt P52333); assay: as above
Sequence of JAK3 (P52333 781-1124 limits assumed): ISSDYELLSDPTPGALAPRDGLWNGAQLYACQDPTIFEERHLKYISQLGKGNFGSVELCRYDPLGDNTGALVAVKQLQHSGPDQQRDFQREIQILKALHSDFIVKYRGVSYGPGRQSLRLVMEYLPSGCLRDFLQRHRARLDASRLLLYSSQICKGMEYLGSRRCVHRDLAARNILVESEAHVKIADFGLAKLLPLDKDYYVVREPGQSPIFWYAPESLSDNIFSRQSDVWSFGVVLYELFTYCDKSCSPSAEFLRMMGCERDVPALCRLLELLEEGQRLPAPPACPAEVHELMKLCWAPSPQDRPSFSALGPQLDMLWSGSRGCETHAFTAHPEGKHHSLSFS

BLK = BLK (Homo sapiens, UniProt P51451); assay: AssayQuant kinact/Ki profiling, PhosphoSens CSox-based kinetic assay; assay type: biochemical; design: purchased ThermoFisher / Life Technologies SelectScreen PV3683
Sequence of BLK (P51451 whole entry): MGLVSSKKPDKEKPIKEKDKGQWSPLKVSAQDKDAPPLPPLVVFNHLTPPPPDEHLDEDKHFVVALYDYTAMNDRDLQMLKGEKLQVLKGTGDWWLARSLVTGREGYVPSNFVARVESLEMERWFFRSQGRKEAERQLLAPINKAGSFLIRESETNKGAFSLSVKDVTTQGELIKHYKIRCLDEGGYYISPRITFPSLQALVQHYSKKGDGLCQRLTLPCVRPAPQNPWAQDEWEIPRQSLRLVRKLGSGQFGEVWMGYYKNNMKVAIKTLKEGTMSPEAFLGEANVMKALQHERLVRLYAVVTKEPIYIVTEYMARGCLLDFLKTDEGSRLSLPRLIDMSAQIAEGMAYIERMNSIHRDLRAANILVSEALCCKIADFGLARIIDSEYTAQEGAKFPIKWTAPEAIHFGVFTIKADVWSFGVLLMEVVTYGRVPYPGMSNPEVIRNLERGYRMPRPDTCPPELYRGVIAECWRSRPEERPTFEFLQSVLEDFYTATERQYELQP

HCK = HCK (Homo sapiens, UniProt P08631); assay: as above
Sequence of HCK (P08631 whole entry): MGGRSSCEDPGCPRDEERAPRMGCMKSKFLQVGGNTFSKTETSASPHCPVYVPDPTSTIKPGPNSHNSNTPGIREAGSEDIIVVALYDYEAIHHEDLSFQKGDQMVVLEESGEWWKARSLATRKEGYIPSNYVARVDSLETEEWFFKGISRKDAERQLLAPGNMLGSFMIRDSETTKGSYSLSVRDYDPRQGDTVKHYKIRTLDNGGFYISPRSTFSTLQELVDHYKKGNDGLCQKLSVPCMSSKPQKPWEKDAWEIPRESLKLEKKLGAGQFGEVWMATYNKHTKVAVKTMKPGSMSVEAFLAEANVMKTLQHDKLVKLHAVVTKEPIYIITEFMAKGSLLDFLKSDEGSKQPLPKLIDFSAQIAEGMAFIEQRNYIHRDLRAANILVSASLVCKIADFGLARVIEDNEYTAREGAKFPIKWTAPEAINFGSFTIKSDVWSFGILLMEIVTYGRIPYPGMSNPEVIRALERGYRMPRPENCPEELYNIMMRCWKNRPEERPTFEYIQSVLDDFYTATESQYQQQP

ITK = molecular target: T2, ITK (Homo sapiens, UniProt Q08881); assay: as above
T2 sequence (Q08881 1-620): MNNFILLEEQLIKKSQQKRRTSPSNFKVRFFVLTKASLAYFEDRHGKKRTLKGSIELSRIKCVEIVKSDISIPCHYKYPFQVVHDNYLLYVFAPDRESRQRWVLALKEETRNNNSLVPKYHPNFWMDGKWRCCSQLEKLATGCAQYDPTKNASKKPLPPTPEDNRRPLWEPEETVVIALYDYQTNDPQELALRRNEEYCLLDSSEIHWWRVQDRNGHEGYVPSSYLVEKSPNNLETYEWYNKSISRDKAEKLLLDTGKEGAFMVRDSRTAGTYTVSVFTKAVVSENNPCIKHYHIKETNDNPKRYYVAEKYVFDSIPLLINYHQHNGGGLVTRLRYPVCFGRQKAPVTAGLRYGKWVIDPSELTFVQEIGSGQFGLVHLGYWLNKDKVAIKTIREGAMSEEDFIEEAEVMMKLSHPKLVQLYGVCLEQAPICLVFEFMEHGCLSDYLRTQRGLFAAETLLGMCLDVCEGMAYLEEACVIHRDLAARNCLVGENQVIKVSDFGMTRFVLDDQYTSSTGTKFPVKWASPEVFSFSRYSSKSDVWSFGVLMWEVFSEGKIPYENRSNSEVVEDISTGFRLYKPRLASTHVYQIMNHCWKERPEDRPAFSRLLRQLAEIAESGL

C=CC(=O)N1CCC[C@@H](n2nc(-c3ccc(Oc4ccccc4)cc3C)c3c(N)ncnc32)C1 [Compound 2, (R)-1-(3-(4-amino-3-(2-methyl-4-phenoxyphenyl)-1H-pyrazolo[3,4-d]pyrimidin-1-yl)piperidin-1-yl)prop-2-en-1-one]
inhibition at 1 µM (ERBB2 (HER2)): 71%
inhibition at 1 µM (KIT): 15%
inhibition at 1 µM (PDGFRB (PDGFR beta)): 6%
inhibition at 1 µM (PTK6 (Brk)): 97%
inhibition at 1 µM (TXK): 99%
inhibition at 1 µM [1]: 12%
inhibition at 1 µM (MAP2K5 (MEK5)): 32%
inhibition at 1 µM (RIPK2): 95%
inhibition at 1 µM (TEC): 100%
inhibition at 1 µM (TTK): 2%
IC50 (BTK-NanoLuc fusion; 30 min): 0.211 µM
IC50 (BTK-NanoLuc fusion; 60 min (30 + 30)): 0.154 µM
IC50 (BTK-NanoLuc fusion; 90 min (30 + 60)): 0.118 µM
IC50 (BTK-NanoLuc fusion; 90 min post compound addition): 0.109 µM
IC50 (BTK-NanoLuc fusion; 120 min (30 + 90)): 0.109 µM
IC50 (EGFR (ErbB1)): 0.197 µM
inhibition at 1 µM (EGFR (ErbB1)): 89%
Hillslope (EGFR (ErbB1); EGFR IC50 curve): 1.08
inhibition at 0.000495 µM (EGFR (ErbB1); read-out: % Inhibition Point 1): -6%
inhibition at 0.00152 µM (EGFR (ErbB1); read-out: % Inhibition Point 1): -4%
inhibition at 0.00457 µM (EGFR (ErbB1); read-out: % Inhibition Point 1): -2%
inhibition at 0.0137 µM (EGFR (ErbB1); read-out: % Inhibition Point 1): 4%
inhibition at 0.0412 µM (EGFR (ErbB1); read-out: % Inhibition Point 1): 10%
inhibition at 0.123 µM (EGFR (ErbB1); read-out: % Inhibition Point 1): 38%
inhibition at 0.37 µM (EGFR (ErbB1); read-out: % Inhibition Point 1): 60%
inhibition at 1.11 µM (EGFR (ErbB1); read-out: % Inhibition Point 1): 89%
inhibition at 3.33 µM (EGFR (ErbB1); read-out: % Inhibition Point 1): 92%
inhibition at 10 µM (EGFR (ErbB1); read-out: % Inhibition Point 1): 97%
inhibition at 0.000495 µM (EGFR (ErbB1); read-out: % Inhibition Point 2): -1%
inhibition at 0.00152 µM (EGFR (ErbB1); read-out: % Inhibition Point 2): -6%
inhibition at 0.00457 µM (EGFR (ErbB1); read-out: % Inhibition Point 2): -4%
inhibition at 0.0137 µM (EGFR (ErbB1); read-out: % Inhibition Point 2): 5%
inhibition at 0.0412 µM (EGFR (ErbB1); read-out: % Inhibition Point 2): 8%
inhibition at 0.123 µM (EGFR (ErbB1); read-out: % Inhibition Point 2): 35%
inhibition at 0.37 µM (EGFR (ErbB1); read-out: % Inhibition Point 2): 63%
inhibition at 1.11 µM (EGFR (ErbB1); read-out: % Inhibition Point 2): 82%
inhibition at 3.33 µM (EGFR (ErbB1); read-out: % Inhibition Point 2): 96%
inhibition at 10 µM (EGFR (ErbB1); read-out: % Inhibition Point 2): 95%
IC50 (JAK3): 0.874 µM
inhibition at 1 µM (JAK3): 65%
JAK3, BTK/Kinase (JAK3; BTK selectivity from IC50 values): 934 x
Hillslope (JAK3; JAK3 IC50 curve): 1.09
inhibition at 0.000495 µM (JAK3; read-out: % Inhibition Point 1): -1%
inhibition at 0.00152 µM (JAK3; read-out: % Inhibition Point 1): -7%
inhibition at 0.00457 µM (JAK3; read-out: % Inhibition Point 1): 2%
inhibition at 0.0137 µM (JAK3; read-out: % Inhibition Point 1): -5%
inhibition at 0.0412 µM (JAK3; read-out: % Inhibition Point 1): 6%
inhibition at 0.123 µM (JAK3; read-out: % Inhibition Point 1): 9%
inhibition at 0.37 µM (JAK3; read-out: % Inhibition Point 1): 28%
inhibition at 1.11 µM (JAK3; read-out: % Inhibition Point 1): 55%
inhibition at 3.33 µM (JAK3; read-out: % Inhibition Point 1): 89%
inhibition at 10 µM (JAK3; read-out: % Inhibition Point 1): 98%
inhibition at 0.000495 µM (JAK3; read-out: % Inhibition Point 2): -4%
inhibition at 0.00152 µM (JAK3; read-out: % Inhibition Point 2): -5%
inhibition at 0.00457 µM (JAK3; read-out: % Inhibition Point 2): 0%
inhibition at 0.0137 µM (JAK3; read-out: % Inhibition Point 2): -3%
inhibition at 0.0412 µM (JAK3; read-out: % Inhibition Point 2): -2%
inhibition at 0.123 µM (JAK3; read-out: % Inhibition Point 2): 10%
inhibition at 0.37 µM (JAK3; read-out: % Inhibition Point 2): 27%
inhibition at 1.11 µM (JAK3; read-out: % Inhibition Point 2): 56%
inhibition at 3.33 µM (JAK3; read-out: % Inhibition Point 2): 85%
inhibition at 10 µM (JAK3; read-out: % Inhibition Point 2): 93%
kinact/KI (BLK; 2.5 nM enzyme, 1000 µM ATP, two step fit): 320000 M⁻¹ s⁻¹
BLK kinact/Ki (BLK; 2.5 nM enzyme, 1000 µM ATP, two step fit, listed as Monomethyl Analog): 316,000 M^-1S^-1
kinact (BLK; fitted value, two step): 0.0034 s⁻¹
kinact (HCK; read-out: HCK kinact): 0.0009 s⁻¹
kinact/KI (HCK; read-out: HCK kinact/KI): 1730 M⁻¹ s⁻¹
kinact (ITK; read-out: ITK kinact): 0.0001 s⁻¹
kinact/KI (ITK; read-out: ITK kinact/KI): 4120 M⁻¹ s⁻¹
